# “Also recorded” adds a separate entry of the source.
# Tests used:
# IL-1β = experiment: LPS/ATP challenge model in C57BL/6 mice, IL-1β in peritoneal lavage; format: in vivo; details: 3.5 hours post dose
# Experimental: (§1) The purpose of this study was to determine the effects of Compounds 1 and 2 treatment on cytokine production after LPS/ATP injection in female C57BL/6 mice.
# (§2) On Day −1 mice were weighed and assigned to groups per Table 2 (see below) in a balanced manner to achieve similar average weight across the groups at the start of the study.
# (§3) All mice received a single dose of treatment or vehicle, at hour minus 1.
# (§4) At hour 0, all mice received 1 μg of lipopolysaccharide, ultra pure (LPS, InvivoGen, San Diego, Calif.) in 0.5 ml PBS, intraperitoneally.
# (§5) At hour 2 (two hours after LPS injection), all mice were injected intraperitoneally with 0.5 ml of 80 mM ATP disodium salt (Sigma, pH adjusted to 7.2 before injection).
# (§6) At hour 2.5 (30 minutes after ATP injection and 3.5 hours after compound dosing), blood from all mice was collected via retro-orbital bleeding into K2 EDTA tubes and plasma was prepared and stored at […]. Samples were shipped to the customer or vendor of customers choosing within 7 days of completing the study.
# (§7) Immediately after the collection of blood, each mouse was euthanized, the peritoneal cavity was lavaged with 3 ml of ice-cold PBS containing 25 U/ml heparin sodium salt, cocktail of protease inhibitors (Complete™ ULTRA Tablets, Sigma, Roche), and 10% FBS. Approximately 1 ml of the lavage was collected, spun down to remove cells and the supernatant stored at −80° C.
# (§8) Compound powders were stored at 4° C. All compounds were prepared fresh. Compounds were weighed out and first ground with a mortar and pestle, then ground with a small amount of vehicle. The mortar was then repeatedly rinsed with vehicle to remove all material and achieve the correct concentration. The final solution was vortexed to create a homogeneous mixture
# (§9) Mouse IL-1β and TNFα concentrations in peritoneal lavage samples were determined using Becton Dickinson (Franklin Lakes, N.J.) CBA analysis kit, according to manufacturer's protocol. A single analysis was performed on each sample.
# (§10) Concentrations of cytokines were compared using Student t-test.
# TNFα = experiment: LPS/ATP challenge model in C57BL/6 mice, TNFα in peritoneal lavage; format: in vivo; details: 3.5 hours post dose
# Experimental: as §1, §2, §3, §4, §5, §6, §7, §8, §9, §10
# pro-caspase-1 = experiment: Inhibition of Caspase1 activation in bone marrow derived macrophages (Western Blot); format: cell-based, mouse; details: 10 μM; BMDMs, LPS 100 ng/ml 3 hours, nigericin 10 μM 90 minutes
structure (smiles),measurement,setting,value
"CS(=O)(=O)NC(=O)Nc1c2c(cc3c1CCC3)CCC2 [Compound 2, N-((1,2,3,5,6,7-hexahydro-s-indacen-4-yl)carbamoyl)methanesulfonamide]",Mean (IL-1β),IL-1β; single oral dose 0.25 mg/kg,392.7 pg/mL
same,% Decrease of IL-1β vs. Vehicle,"IL-1β; single oral dose 0.25 mg/kg, 0.25 mg/kg",71.0%
same,Mean (IL-1β),IL-1β; single oral dose 1 mg/kg,12.9 pg/mL
same,% Decrease of IL-1β vs. Vehicle,"IL-1β; single oral dose 1 mg/kg, 1 mg/kg",99.0%
same,Mean (IL-1β),IL-1β; single oral dose 2.5 mg/kg,10.7 pg/mL
same,% Decrease of IL-1β vs. Vehicle,"IL-1β; single oral dose 2.5 mg/kg, 2.5 mg/kg",99.2%
same,% Decrease of TNFα vs. Vehicle,TNFα; single oral dose 0.25 mg/kg,−12.5%
same,Mean (TNFα),TNFα; single oral dose 0.25 mg/kg,384.7 pg/mL
same,% Decrease of TNFα vs. Vehicle,TNFα; single oral dose 1 mg/kg,−15.5%
same,Mean (TNFα),TNFα; single oral dose 1 mg/kg,394.9 pg/mL
same,% Decrease of TNFα vs. Vehicle,TNFα; single oral dose 2.5 mg/kg,−218%
same,Mean (TNFα),TNFα; single oral dose 2.5 mg/kg,416.6 pg/mL
same,"activation of pro-caspase-1 (p45 and p10 bands, Western Blot)",pro-caspase-1,blocked; also recorded: inhibition of activation
